Laboratory results reported in patent US20190365675A1, “COMPOSITIONS FOR THE PREVENTION AND/OR TREATMENT OF ALCOHOL USE DISORDERS” (SERVICIO ANDALUZ DE SALUD, priority 2016, published 2019).

Assays:
Format in all cases: in vivo, Wistar rats
[1] = system: iNOS; assay: iNOS mRNA in frontal cortex after ethanol intoxication; settings: OEA pre-treatment
Experimental: (§1) The animals were treated with intragastric (i.g.) ethanol 3 times a day using an i.g. cannula (16G needle, Fisher Scientific, Waltham, Mass., USA), following a protocol based on a slightly modified standard 4-day alcohol intoxication pattern (Bernier et al., 2002a, b) (FIG. 1A). The ethanol doses were administered every 8 h for a total time of 4 days. The rats treated with ethanol received an initial loading dose of 5 g/kg of ethanol in a 30% solution (w/v) and then a maximum maintenance dose of 3 g/kg, which were determined based on blood ethanol levels (BEL). This repeated standard alcohol intoxication paradigm kept BEL intoxication relatively constant in a range of sedation/ataxia (190 to 430 mg/dl, Table 3), according to the 6-point alcohol intoxication behavior scale (Majchrowicz, 1975). The mean dose of ethanol/rat/day (days 1-4) was 7.06 g/kg, similar to other studies (Obernier et al., 2002a, b). OEA (5 mg/kg, i.p., except initial dose of 10 mg/kg i.p.; synthesized as described in Giuffrida et al., 2000) was dissolved in the vehicle (5% Tween-80 in saline solution) and injected 10 minutes before each of the administrations of ethanol by an intragastric gavage. […] The quantitative changes in mRNA levels were estimated by means of RT-PCR, carried out in the presence of the SYBR green primer using a 20-L reaction in a Rotor-Gene (Corbett Research®, Mortlake, NSW, Australia). […]

[2] = system: COX-2; assay: COX-2 mRNA in frontal cortex after ethanol intoxication; settings: ethanol-treated animals (not in vehicle-treated animals), OEA pre-treatment
Experimental: as §1

[3] = system: caspase-8; assay: Caspase-8 mRNA in frontal cortex after ethanol intoxication; settings: OEA pre-treatment
Experimental: as §1

[4] = system: caspase-3; assay: Caspase-3 mRNA, protein and activity (fluorometric assay) in frontal cortex after ethanol intoxication; settings: OEA pre-treatment
Experimental: The animals were treated with intragastric (i.g.) ethanol 3 times a day using an i.g. cannula (16G needle, Fisher Scientific, Waltham, Mass., USA), following a protocol based on a slightly modified standard 4-day alcohol intoxication pattern (Bernier et al., 2002a, b) (FIG. 1A). The ethanol doses were administered every 8 h for a total time of 4 days. The rats treated with ethanol received an initial loading dose of 5 g/kg of ethanol in a 30% solution (w/v) and then a maximum maintenance dose of 3 g/kg, which were determined based on blood ethanol levels (BEL). This repeated standard alcohol intoxication paradigm kept BEL intoxication relatively constant in a range of sedation/ataxia (190 to 430 mg/dl, Table 3), according to the 6-point alcohol intoxication behavior scale (Majchrowicz, 1975). The mean dose of ethanol/rat/day (days 1-4) was 7.06 g/kg, similar to other studies (Obernier et al., 2002a, b). OEA (5 mg/kg, i.p., except initial dose of 10 mg/kg i.p.; synthesized as described in Giuffrida et al., 2000) was dissolved in the vehicle (5% Tween-80 in saline solution) and injected 10 minutes before each of the administrations of ethanol by an intragastric gavage. The anti-inflammatory activity of OEA at 10 mg/kg per intraperitoneal route in the frontal cortex before the injection of LPS (Sayd et al., 2014) was previously referred to. In this study, OEA is repeatedly injected as a pre-treatment before each administration of ethanol. The doses of OEA chosen in this study are in the range of doses tested as being pharmacologically active (5-20 mg/kg, i.p.) (Bilbao et al., 2015). […] The autoradiograph was quantified by densitometry (NIH ImageJ® software, National Biosciences, Lincoln, Nebr. USA) and expressed as optical density (OD). […] The quantitative changes in mRNA levels were estimated by means of RT-PCR, carried out in the presence of the SYBR green primer using a 20-L reaction in a Rotor-Gene (Corbett Research®, Mortlake, NSW, Australia). […] Caspase-3 activity was determined using a fluorometric assay kit (Abnova®, Taiwan) according to the manufacturer's protocol. […]

CCCCCCCC/C=C\CCCCCCCC(=O)NCCO [OEA, oleoylethanolamide]
Ethanol-induced increase in expression of iNOS mRNA [1]: entirely prevented
Levels of COX-2 mRNA with ethanol [2]: reduced
Ethanol-induced overexpression of caspase-8 mRNA [3]: reversed
Alcohol-induced overexpression of caspase-3 mRNA [4]: unable to prevent
Ethanol-induced overexpression of caspase-3 protein [4]: prevented
Ethanol-induced increase in activity of caspase-3 ([4]; fluorometric assay): reverted
